Source: ChEMBL document CHEMBL1201862, “PubChem BioAssay data set” (2004)
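Compound exposure: 48 hours, 5 concentrations, 96-well plates. Here, GI50 denotes the concentration required for 50% inhibition of growth.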 Activity calls are given as the source filed them. No stated cut-off is given here; in the data, active = GI50 up to about 1.1 µM and inactive = higher.

What was measured:
Assay in all cases: NCI tumour cell line growth inhibition, 48 h
UACC-62 = test system: UACC-62
OVCAR-5 = test system: OVCAR-5
NCI-H226 = test system: NCI-H226
RXF 393 = test system: RXF 393
SF-295 = test system: SF-295
CAKI-1 = test system: CAKI-1
NCI-H522 = test system: NCI-H522
SW-620 = test system: SW-620
K562 = test system: K562
Hs-578T = test system: Hs-578T
LOX IMVI = test system: LOX IMVI
786-0 = test system: 786-0
SN12C = test system: SN12C
KM12 = test system: KM12
HT-29 = test system: HT-29
OVCAR-8 = test system: OVCAR-8
BT-549 = test system: BT-549
M14 = test system: M14
MDA-MB-435 = test system: MDA-MB-435
SK-MEL-2 = test system: SK-MEL-2

Measured: GI50

O=[N+]([O-])c1ccc(S(=O)(=O)Cc2ccccc2)c2nonc12
inactive: UACC-62 17.8 µM | OVCAR-5 58.2 µM | NCI-H226 > 100 µM | RXF 393 17.7 µM | SF-295 > 100 µM | CAKI-1 20.1 µM | NCI-H522 18.8 µM | SW-620 22.1 µM | K562 26.6 µM | Hs-578T 24.3 µM | LOX IMVI 19.2 µM | 786-0 19.6 µM | SN12C 13.9 µM | KM12 19.5 µM | HT-29 18.7 µM | OVCAR-8 22.1 µM | BT-549 18.5 µM | M14 16.4 µM | MDA-MB-435 19.2 µM | SK-MEL-2 19.3 µM
